According to US10029992B2, “Diaminotriazine compounds and their use as herbicides” (BASF SE, priority 2014, dated 2018):

What was measured:
Assay in all cases: Greenhouse experiment, post-emergence treatment
Settings in all cases: post-emergence method, application rate 125 g/ha
PHBPU = assay type: in vivo, Pharbitis purpurea
Experimental: (§1) The seeds of the test plants were sown separately for each species. […] For this purpose, the test plants were either sown directly and grown in the same containers, or they were first grown separately as seedlings and transplanted into the test containers a few days prior to treatment. Depending on the species, the plants were kept at 10-25° C. or 20-35° C., respectively. The test period extended over 2 to 4 weeks. During this time, the plants were tended, and their response to the individual treatments was evaluated. Evaluation was carried out using a scale from 0 to 100. 100 means no emergence of the plants, or complete destruction of at least the aerial moieties, and 0 means no damage, or normal course of growth. A moderate herbicidal activity is given at values of at least 60, a good herbicidal activity is given at values of at least 70, and a very good herbicidal activity is given at values of at least 85. […] [table]

ELEIN = assay type: in vivo, Eleusine indica
Experimental: as §1

SETFA = assay type: in vivo, Setaria faberi
Experimental: as §1

CC(C)(F)c1nc(N)nc(Nc2c(F)cccc2Oc2cc(Cl)cc(OC(F)(F)F)c2)n1 [Example 64]
herbicidal activity against PHBPU (PHBPU): very good (a very good herbicidal activity is given at values of at least 85) | herbicidal activity against ELEIN (ELEIN): very good (a very good herbicidal activity is given at values of at least 85) | herbicidal activity against SETFA (SETFA): very good (a very good herbicidal activity is given at values of at least 85)
